# In PMC11110727, “Exploiting thiol-functionalized benzosiloxaboroles for achieving diverse substitution patterns – synthesis, characterization and biological evaluation of promising antibacterial agents” (RSC Medicinal Chemistry, 2024):
# Where two headings read alike, the source gives them in different places.
# Key:
# S. aureus ATCC 6538P = test: Antibacterial activity: MIC/MBC determination and disc-diffusion; format: cell-based, Staphylococcus aureus; conditions: S. aureus ATCC 6538P; for diameter of inhibition zone: disc-diffusion, — = zone not observed; for MBC / MIC: Staphylococcus aureus, ATCC6538P; for MIC: read-out: MIC
# Experimental: (§1) Direct antimicrobial activity was determined against the following standard strains: (1) Gram-positive cocci: methicillin-sensitive Staphylococcus aureus ATCC 6538P (MSSA), methicillin-resistant S. aureus subsp. aureus ATCC 43300 (MRSA), S. epidermidis ATCC 12228, Enterococcus faecium ATCC 6057, E. faecalis ATCC 29212, Bacillus subtilis ATCC 6633; (2) Gram-negative bacteria from Enterobacteriales order: Klebsiella pneumoniae ATCC 13883, Escherichia coli ATCC 25922, Enterobacter cloacae DSM 6234, Proteus mirabilis ATCC 12453, Serratia marcescens ATCC 13880; (3) Gram-negative non-fermentative rods: Acinetobacter baumannii ATCC 19606, Pseudomonas aeruginosa ATCC 27853, Stenotrophomonas maltophilia ATCC 12714, S. maltophilia ATCC 13637, Burkholderia cepacia ATCC 25416, Bordetella bronchiseptica ATCC 4617; (4) yeasts: Candida albicans ATCC 90028, C. krusei ATCC 6258, C. parapsilosis ATCC 22019, C. tropicalis (Castellani) Berkhout ATCC 750, C. tropicalis IBA 171, C. guilliermondii IBA 155, and Saccharomyces cerevisiae ATCC 9763. Moreover, 5 clinical strains of methicillin-resistant S. aureus were also included: NMI 664 K, NMI 1576 K, NMI 1712 K, NMI 1991 K, and NMI 2541 K. All strains were stored at −80 °C. Prior to testing, each bacterial strain was subcultured twice on tryptic soy agar TSA (bioMerieux) medium and yeast strains on Sabouraud dextrose agar (bioMerieux) for 24–48 h at 30 °C to ensure viability. The antimicrobial activity was evaluated as previously described[26] by the disc-diffusion method and the MIC determination assays according to the EUCAST (ref. [71] and [72]) and CLSI (ref. [53] and [73]) recommendations. Assessment of bactericidal (MBC) and fungicidal (MFC) activities was performed according to the CLSI recommendations.[54,74] The following reference agents were used: fluconazole (in the case of fungi), linezolid (for Gram-positive bacteria), and nitrofurantoin (for Gram-negative rods). The new benzosiloxaboroles were dissolved in DMSO (Sigma).
# E. coli ATCC 25922 = test: Antibacterial activity: MIC/MBC, MIC with PAβN, disc-diffusion; format: cell-based, Escherichia coli; conditions: E. coli ATCC 25922; for MIC: Escherichia coli, ATCC25922, read-out: MIC; for -fold reduction of MIC in the presence of PAβN: PAβN 20 μg mL^−1, MHB + 1 mM MgSO4
# Experimental: as §1, with “The following reference agents were used: fluconazole (in the case of fungi), linezolid (for Gram-positive bacteria), and nitrofurantoin (for Gram-negative rods).” left out
# (§2) Considering that the MDR efflux pumps often contribute to Gram-negative rod resistance, the MIC values of studied agents, with or without the pump inhibitor, PAβN (20 μg mL^−1) (Sigma), were determined.[75] The MIC was determined using Mueller–Hinton II broth medium (MHB) (Becton Dickinson) by the broth microdilution method, according to the CLSI guideliness.[53] To minimize the influence of PAβN on the destabilization of bacterial cell covers, the tests were conducted in the presence of 1 mM MgSO4 (Sigma).[76] At least a 4-fold reduction in the MIC value after the addition of PAβN was considered significant.[56,77]
# K. pneumoniae ATCC 13883 = test: as above; format: cell-based, Klebsiella pneumoniae; conditions: K. pneumoniae ATCC 13883; for MIC: Klebsiella pneumoniae, ATCC13883, read-out: MIC
# Experimental: as §1, with “The following reference agents were used: fluconazole (in the case of fungi), linezolid (for Gram-positive bacteria), and nitrofurantoin (for Gram-negative rods).” left out
# as §2
# A. baumannii ATCC 19606 = test: as above; format: cell-based, Acinetobacter baumannii; conditions: A. baumannii ATCC 19606; for MIC: Acinetobacter baumannii, ATCC19606, read-out: MIC
# Experimental: as §1, with “The following reference agents were used: fluconazole (in the case of fungi), linezolid (for Gram-positive bacteria), and nitrofurantoin (for Gram-negative rods).” left out
# as §2
# [1] = system: S. maltophilia ATCC 12714; test: as above; format: cell-based, Stenotrophomonas maltophilia; conditions: S. maltophilia ATCC 12714; for MIC: Stenotrophomonas maltophilia, ATCC12714, read-out: MIC
# Experimental: as §1, with “The following reference agents were used: fluconazole (in the case of fungi), linezolid (for Gram-positive bacteria), and nitrofurantoin (for Gram-negative rods).” left out
# as §2
# [2] = system: S. maltophilia ATCC 13637; test: as above; format: cell-based, Stenotrophomonas maltophilia; conditions: S. maltophilia ATCC 13637; for MIC: Stenotrophomonas maltophilia, ATCC13637, read-out: MIC; for -fold reduction of MIC in the presence of PAβN: PAβN 20 μg mL^−1, MHB + 1 mM MgSO4
# Experimental: as §1, with “The following reference agents were used: fluconazole (in the case of fungi), linezolid (for Gram-positive bacteria), and nitrofurantoin (for Gram-negative rods).” left out
# as §2
# B. cepacia ATCC 25416 = test: Antibacterial activity: MIC/MBC, disc-diffusion; format: cell-based, Burkholderia cepacia; conditions: Burkholderia cepacia, ATCC25416; B. cepacia ATCC 25416; read-out: MIC
# Experimental: as §1, with “The following reference agents were used: fluconazole (in the case of fungi), linezolid (for Gram-positive bacteria), and nitrofurantoin (for Gram-negative rods).” left out
# as §2
# [3] = system: C. guilliermondii IBA 155; test: Antifungal activity: MIC/MFC, disc-diffusion; format: cell-based; conditions: for MIC: Meyerozyma guilliermondii, IBA155, read-out: MIC
# Experimental: as §1
# C. tropicalis ATCC 750 = test: Antifungal activity: MIC/MFC, disc-diffusion; format: cell-based; conditions: Candida tropicalis, ATCC750; read-out: MIC
# Experimental: as §1
# S. cerevisiae ATCC 9763 = test: Antifungal activity: MIC/MFC, disc-diffusion; format: cell-based, Saccharomyces cerevisiae; conditions: for diameter of inhibition zone: (-) = zone not observed, paper discs 9 mm; for MIC: read-out: MIC
# Experimental: as §1
# [4] = read-out: MBC (first MBC where Eagle effect)
# [5] = Saccharomyces cerevisiae, ATCC9763
# [6] = value after the slash, read-out: second MBC (Eagle effect)
# [7] = PAβN 20 μg mL^−1, MHB + 1 mM MgSO4
Structure (SMILES),diameter of inhibition zone (S. aureus ATCC 6538P) [mm],MBC (S. aureus ATCC 6538P; [4]) [µg/mL],MIC (S. aureus ATCC 6538P) [µg/mL],MIC (E. coli ATCC 25922) [µg/mL],MIC (K. pneumoniae ATCC 13883) [µg/mL],MIC (A. baumannii ATCC 19606) [µg/mL],MIC [1] [µg/mL],MIC [2] [µg/mL],MIC (B. cepacia ATCC 25416) [µg/mL],MIC [3] [µg/mL],MIC (C. tropicalis ATCC 750) [µg/mL],MIC (S. cerevisiae ATCC 9763; [5]) [µg/mL],-fold reduction of MIC in the presence of PAβN (E. coli ATCC 25922),also measured
"C[Si]1(C)OB(O)c2cc(F)c(S)c(F)c21 [Compound 1e, 5,7-Difluoro-6-mercapto-1,1-dimethylbenzo[c][1,2,5]oxasilaborol-3(1H)-ol]",19,25,12.5,> 400,> 400,> 400,> 400,> 400,> 400,> 400,400,200,–,diameter of inhibition zone (S. cerevisiae ATCC 9763; S. cerevisiae ATCC 9763): 17 mm
"C[Si]1(C)OB(O)c2ccc(S)c(F)c21 [Compound 2e, 7-Fluoro-6-mercapto-1,1-dimethylbenzo[c][1,2,5]oxasilaborol-3(1H)-ol]",20,25,12.5,> 100,> 100,> 100,> 100,> 100,> 100,> 100,> 100,> 100,–,–
"CC(=O)CCSc1c(F)cc2c(c1F)[Si](C)(C)OB2O [Compound 3, 4-((5,7-Difluoro-3-hydroxy-1,1-dimethyl-1,3-dihydrobenzo[c][1,2,5]oxasilaborol-6-yl)thio)butan-2-one]",23,100,50,> 400,> 400,> 400,200,400,> 400,200,> 400,400,–,–
"COC(=O)CCSc1ccc2c(c1F)[Si](C)(C)OB2O [Compound 4, Methyl 3-((7-fluoro-3-hydroxy-1,1-dimethyl-1,3-dihydrobenzo[c][1,2,5]oxasilaborol-6-yl)thio)propanoate]",27,25,12.5,400,> 400,> 400,> 400,> 400,> 400,400,> 400,12.5,8 -fold,"MBC (S. aureus ATCC 6538P; [6]): 400 µg/mL; diameter of inhibition zone (E. coli ATCC 25922; (-) = zone not observed, paper discs 9 mm): 15 mm; -fold reduction of MIC in the presence of PAβN (K. pneumoniae ATCC 13883; [7]): 8 -fold; -fold reduction of MIC in the presence of PAβN (A. baumannii ATCC 19606; [7]): 2 -fold; -fold reduction of MIC in the presence of PAβN [1, 7]: 2 -fold; -fold reduction of MIC in the presence of PAβN [2]: 2 -fold; diameter of inhibition zone ([3]; C. guilliermondii IBA 155, (-) = zone not observed, paper discs 9 mm): 12 mm; diameter of inhibition zone (S. cerevisiae ATCC 9763; S. cerevisiae ATCC 9763): 32 mm; MFC (S. cerevisiae ATCC 9763; Saccharomyces cerevisiae, ATCC9763, S. cerevisiae ATCC 9763): 400 µg/mL"
"C[Si]1(C)OB(O)c2cc(F)c(SCCC(=O)ON3C(=O)CCC3=O)c(F)c21 [Compound 5, 2,5-Dioxopyrrolidin-1-yl 3-((5,7-difluoro-3-hydroxy-1,1-dimethyl-1,3-dihydrobenzo-[c][1,2,5]oxasilaborol-6-yl)thio)propanoate]",15,–,400,> 400,> 400,> 400,> 400,> 400,> 400,> 400,> 400,> 400,–,–
"C[Si]1(C)OB(O)c2cc(F)c(SCCC#N)c(F)c21 [Compound 6, 3-((5,7-Difluoro-3-hydroxy-1,1-dimethyl-1,3-dihydrobenzo[c][1,2,5]oxasilaborol-6-yl)thio)propanenitrile]",30,12.5,6.25,> 400,> 400,> 400,> 400,> 400,> 400,> 400,> 400,> 400,2 -fold,MBC (S. aureus ATCC 6538P; [6]): > 400 µg/mL; -fold reduction of MIC in the presence of PAβN [2]: 2 -fold
"C[Si]1(C)OB(O)c2cc(F)c(SCCC(N)=O)c(F)c21 [Compound 7, 3-((5,7-Difluoro-3-hydroxy-1,1-dimethyl-1,3-dihydrobenzo[c][1,2,5]oxasilaborol-6-yl)thio)propanamide]",24,–,50,> 400,> 400,> 400,> 400,> 400,> 400,> 400,> 400,> 400,4 -fold,–
"C[Si]1(C)OB(O)c2cc(F)c(S(=O)(=O)N3CCOCC3)c(F)c21 [Compound 29, 5,7-Difluoro-1,1-dimethyl-6-(morpholinosulfonyl)benzo[c][1,2,5]oxasilaborol-3(1H)-ol]",16,400,200,> 400,> 400,> 400,> 400,> 400,> 400,–,–,–,2 -fold,–
